Measurements reported in ChEMBL document CHEMBL1153803, “Parallel synthesis of chiral pentaamines and pyrrolidine containing bis-heterocyclic libraries. Multiple scaffolds with multiple building blocks: a double diversity for the identification of new antitubercular compounds” (Bioorg Med Chem Lett, 2009).
Converted amounts (≈) assume the structure as drawn.

Key:
[1] = tested on: Mycobacterium tuberculosis; experiment: Antimicrobial activity against Mycobacterium tuberculosis H37Rv ATCC 27294 at 6.25 ug/mL by broth microdilution assay; assay type: functional
[2] = Selective index, the ratio of IC50 in the african green monkey Vero cells to the MIC to Mycobacterium tuberculosis H37Rv ATCC 27294; assay type: functional
Vero = experiment: Cytotoxicity against african green monkey Vero cells at after 72 hrs by MTT assay; assay type: cell-based, Chlorocebus sabaeus; settings: Chlorocebus sabaeus, Vero, 72 h; read-out: IC50
[3] = tested on: Mycobacterium tuberculosis; experiment: Antimicrobial activity against Mycobacterium tuberculosis H37Rv ATCC 27294 by microplate Almar blue assay; assay type: functional; settings: Mycobacterium tuberculosis, H37Rv ATCC 27294; read-out: MIC

SMILES	inhibition at 6.25 µg/mL [1] [%]	Selectivity Index [2]	IC50 (Vero) [µg/mL]	MIC [3] [µg/mL]
Brc1cccc(CCCN2CCN([C@@H](Cc3ccccc3)CN3CCCC3CN3CCNC[C@@H]3Cc3ccccc3)C[C@@H]2Cc2ccccc2)c1 (stereo not given in full)	99	0.29	1.12 (≈ 1.5 µM)	3.9 (≈ 5.21 µM)
FC(F)(F)c1cccc(CCN2CCN([C@@H](Cc3ccccc3)CN3CCCC3CN3CCNC[C@@H]3Cc3ccccc3)C[C@@H]2Cc2ccccc2)c1 (stereo not given in full)	99	0.29	1.12 (≈ 1.55 µM)	3.9 (≈ 5.39 µM)
Oc1ccc(CCN2CCN([C@@H](Cc3ccccc3)CN3CCCC3CN3CCNC[C@@H]3Cc3ccccc3)C[C@@H]2Cc2ccccc2)cc1 (stereo not given in full)	99	0.28	1.11 (≈ 1.65 µM)	3.9 (≈ 5.8 µM)
Cc1cccc(CCN2CCN([C@@H](Cc3ccccc3)CN3CCCC3CN3CCNC[C@@H]3Cc3ccccc3)C[C@@H]2Cc2ccccc2)c1 (stereo not given in full)	99	0.27	1.05 (≈ 1.57 µM)	3.9 (≈ 5.82 µM)
c1ccc(CCN2CCN([C@H](Cc3ccc4ccccc4c3)CN3CCCC3CN3CCNC[C@@H]3Cc3ccccc3)C[C@@H]2Cc2ccccc2)cc1 (stereo not given in full)	100	0.27	1.06 (≈ 1.5 µM)	3.9 (≈ 5.52 µM)
Fc1ccc(CCN2CCN([C@@H](Cc3ccccc3)CN3CCCC3CN3CCNC[C@@H]3Cc3ccccc3)C[C@@H]2Cc2ccccc2)cc1 (stereo not given in full)	98	0.27	1.05 (≈ 1.56 µM)	3.9 (≈ 5.79 µM)
Clc1ccc(CCN2CCN([C@@H](Cc3ccccc3)CN3CCCC3CN3CCNC[C@@H]3Cc3ccccc3)C[C@@H]2Cc2ccccc2)cc1Cl (stereo not given in full)	99	0.27	1.07 (≈ 1.48 µM)	3.9 (≈ 5.38 µM)
CC(C)[C@@H](CN1CCCC1CN1CCNC[C@@H]1Cc1ccccc1)N1CCN(CCc2ccccc2)[C@@H](Cc2ccccc2)C1 (stereo not given in full)	100	0.26	1 (≈ 1.64 µM)	3.9 (≈ 6.42 µM)
CCCC[C@@H](CN1CCCC1CN1CCNC[C@@H]1Cc1ccccc1)N1CCN(CCc2ccccc2)[C@@H](Cc2ccccc2)C1 (stereo not given in full)	100	0.26	1 (≈ 1.61 µM)	3.9 (≈ 6.27 µM)
c1ccc(CCN2CCN([C@@H](Cc3ccc4ccccc4c3)CN3CCCC3CN3CCNC[C@@H]3Cc3ccccc3)C[C@@H]2Cc2ccccc2)cc1 (stereo not given in full)	100	0.26	1 (≈ 1.42 µM)	3.9 (≈ 5.52 µM)
CCOc1ccc(CCN2CCN([C@@H](Cc3ccccc3)CN3CCCC3CN3CCNC[C@@H]3Cc3ccccc3)C[C@@H]2Cc2ccccc2)cc1 (stereo not given in full)	98	0.26	1.03 (≈ 1.47 µM)	3.9 (≈ 5.57 µM)
CCCCCCCN1CCN([C@@H](Cc2ccccc2)CN2CCCC2CN2CCNC[C@@H]2Cc2ccccc2)C[C@@H]1Cc1ccccc1 (stereo not given in full)	99	0.26	1.03 (≈ 1.58 µM)	3.9 (≈ 6 µM)
CCC(C)CCN1CCN([C@@H](Cc2ccccc2)CN2CCCC2CN2CCNC[C@@H]2Cc2ccccc2)C[C@@H]1Cc1ccccc1 (stereo not given in full)	96	0.26	1 (≈ 1.57 µM)	3.9 (≈ 6.13 µM)
c1ccc(C[C@H]2CNCCN2CC2CCCN2C[C@H](Cc2ccccc2)N2CCN(CCc3ccc(-c4ccccc4)cc3)[C@@H](Cc3ccccc3)C2)cc1 (stereo not given in full)	97	0.26	1 (≈ 1.37 µM)	3.9 (≈ 5.33 µM)
CC(C)C[C@@H](CN1CCCC1CN1CCNC[C@@H]1Cc1ccccc1)N1CCN(CCc2ccccc2)[C@@H](Cc2ccccc2)C1 (stereo not given in full)	100	0.25	0.99 (≈ 1.59 µM)	3.9 (≈ 6.27 µM)
c1ccc(CCN2CCN([C@@H](Cc3ccccc3)CN3CCCC3CN3CCNC[C@@H]3Cc3ccccc3)C[C@H]2CC2CCCCC2)cc1 (stereo not given in full)	98	0.25	0.97 (≈ 1.47 µM)	3.9 (≈ 5.89 µM)
c1ccc(CCN2CCN([C@H](CC3CCCCC3)CN3CCCC3CN3CCNC[C@@H]3Cc3ccccc3)C[C@@H]2Cc2ccccc2)cc1 (stereo not given in full)	98	0.24	0.92 (≈ 1.39 µM)	3.9 (≈ 5.89 µM)
c1ccc(C[C@H]2CNCCN2CC2CCCN2C[C@H](Cc2ccccc2)N2CCN(CC3(c4ccccc4)CC3)[C@@H](Cc3ccccc3)C2)cc1 (stereo not given in full)	99	0.24	0.94 (≈ 1.38 µM)	3.9 (≈ 5.72 µM)
Cc1ccc(CN2CCN([C@@H](Cc3ccccc3)CN3CCCC3CN3CCNC[C@@H]3Cc3ccccc3)C[C@@H]2Cc2ccccc2)cc1 (stereo not given in full)	98	0.23	0.88 (≈ 1.34 µM)	3.9 (≈ 5.95 µM)
CC(CCN1CCN([C@@H](Cc2ccccc2)CN2CCCC2CN2CCNC[C@@H]2Cc2ccccc2)C[C@@H]1Cc1ccccc1)c1ccccc1 (stereo not given in full)	99	0.22	0.87 (≈ 1.27 µM)	3.9 (≈ 5.7 µM)
c1ccc(CCN2CCN([C@@H](Cc3ccccc3)CN3CCCC3CN3CCNC[C@H]3Cc3ccccc3)C[C@@H]2Cc2ccccc2)cc1 (stereo not given in full)	99	0.22	0.86 (≈ 1.31 µM)	3.9 (≈ 5.95 µM)
c1ccc(C[C@H]2CNCCN2CC2CCCN2C[C@H](Cc2ccccc2)N2CCN(CCC3CC4CCC3C4)[C@@H](Cc3ccccc3)C2)cc1 (stereo not given in full)	97	0.22	0.87 (≈ 1.29 µM)	3.9 (≈ 5.79 µM)
c1ccc(CCN2CCN([C@@H](Cc3ccccc3)CN3CCCC3CN3CCNC[C@@H]3Cc3ccccc3)C[C@@H]2CC2CCCCC2)cc1 (stereo not given in full)	99	0.21	0.82 (≈ 1.24 µM)	3.9 (≈ 5.89 µM)
Fc1cccc(CCN2CCN([C@@H](Cc3ccccc3)CN3CCCC3CN3CCNC[C@@H]3Cc3ccccc3)C[C@@H]2Cc2ccccc2)c1 (stereo not given in full)	98	0.21	0.8 (≈ 1.19 µM)	3.9 (≈ 5.79 µM)
CCC(C)CN1CCN([C@@H](Cc2ccccc2)CN2CCCC2CN2CCNC[C@@H]2Cc2ccccc2)C[C@@H]1Cc1ccccc1 (stereo not given in full)	97	0.18	0.7 (≈ 1.13 µM)	3.9 (≈ 6.27 µM)
c1ccc(C[C@H]2CNCCN2CC2CCCN2C[C@H](Cc2ccccc2)N2CCN(CC3CCCCC3)[C@@H](Cc3ccccc3)C2)cc1 (stereo not given in full)	100	0.18	0.71 (≈ 1.1 µM)	3.9 (≈ 6.02 µM)
c1ccc(C[C@H]2CNCCN2CC2CCCN2C[C@H](Cc2ccccc2)N2CCN(CCC3CCCCC3)[C@@H](Cc3ccccc3)C2)cc1 (stereo not given in full)	99	0.16	0.62 (≈ 0.937 µM)	3.9 (≈ 5.89 µM)
c1ccc(C[C@H]2CNCCN2CC2CCCN2C[C@H](Cc2ccccc2)N2CCN(CCCC3CCCC3)[C@@H](Cc3ccccc3)C2)cc1 (stereo not given in full)	100	0.11	0.42 (≈ 0.634 µM)	3.9 (≈ 5.89 µM)
COc1cccc(CCN2CCN([C@@H](Cc3ccccc3)CN3CCCC3CN3CCNC[C@@H]3Cc3ccccc3)C[C@@H]2Cc2ccccc2)c1 (stereo not given in full)	99	0.08	0.32 (≈ 0.466 µM)	3.9 (≈ 5.69 µM)
COc1ccc(CCN2CCN([C@@H](Cc3ccccc3)CN3CCCC3CN3CCNC[C@@H]3Cc3ccccc3)C[C@@H]2Cc2ccccc2)cc1 (stereo not given in full)	99	0.08	0.33 (≈ 0.481 µM)	3.9 (≈ 5.69 µM)
